From publication PMC9785006, “The Study of Hypoglycemic Activity of 7-Terpenylcoumarins” (Molecules, 2022)

Legend:
DPP IV [1] = molecular target: T1, DPP IV (Homo sapiens, UniProt P27487); assay: fluorometric DPP (IV) inhibitor screening kit (Cayman), Gly-Pro-AMC substrate; at […] the effect was only a tendency ([…] < p < […]); type: biochemical
T1 construct: gene DPP4

DPP IV [2] = molecular target: T1, DPP IV; assay: fluorometric DPP (IV) inhibitor screening kit (Cayman), Gly-Pro-AMC substrate; type: biochemical

T1 sequence (P27487 39-766): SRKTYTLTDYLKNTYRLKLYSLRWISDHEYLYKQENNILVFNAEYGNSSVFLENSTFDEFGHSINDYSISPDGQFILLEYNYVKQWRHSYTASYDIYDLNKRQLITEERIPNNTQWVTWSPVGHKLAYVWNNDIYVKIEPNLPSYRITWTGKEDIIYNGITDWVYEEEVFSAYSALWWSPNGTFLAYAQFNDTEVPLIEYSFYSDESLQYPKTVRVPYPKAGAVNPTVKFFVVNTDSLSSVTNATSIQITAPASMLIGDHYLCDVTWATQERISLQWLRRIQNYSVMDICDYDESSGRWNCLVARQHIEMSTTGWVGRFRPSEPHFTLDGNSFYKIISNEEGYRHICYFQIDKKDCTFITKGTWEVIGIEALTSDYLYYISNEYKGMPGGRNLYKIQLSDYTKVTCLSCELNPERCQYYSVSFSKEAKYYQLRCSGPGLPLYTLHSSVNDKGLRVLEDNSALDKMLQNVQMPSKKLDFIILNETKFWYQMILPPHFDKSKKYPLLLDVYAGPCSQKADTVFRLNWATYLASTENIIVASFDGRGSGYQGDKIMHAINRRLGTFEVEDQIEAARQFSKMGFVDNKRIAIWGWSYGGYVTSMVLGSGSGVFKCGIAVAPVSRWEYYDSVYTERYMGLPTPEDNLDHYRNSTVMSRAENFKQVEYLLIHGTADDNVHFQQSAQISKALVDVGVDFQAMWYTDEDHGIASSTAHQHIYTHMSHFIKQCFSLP

IC50 (DPP IV [1])	IC50 (DPP IV [2])	Compound
115 µM	–	CC1(C)[C@H]2CC=C(COc3ccc4c5c(c(=O)oc4c3)CCC5)[C@@H]1C2 [7b, 7-(((1R,5S)-6,6-Dimethylbicyclo [3.1.1]hept-2-en-2-yl)methoxy)-2,3-dihydrocyclopenta[c]chromen-4(1H)-one]
–	128 µM	CC(C)=CCC/C(C)=C/COc1ccc2c(-c3ccccc3)cc(=O)oc2c1 [9a, (E)-7-(3,7-Dimethylocta-2,6-dienyloxy)-4-phenyl-2H-chromen-2-one]
